This series is described as follows: Evaluation of metabolic stability in human liver microsomes. It is filed as in vitro ADME. To be noted: for half-life at 1 μM: in vitro t1/2, 0.5 mg/mL human liver microsomes, 1 μM test compound, 2 mM NADPH, pH 7.4, 37° C., 0-30 minutes, average of two experiments, read-out: Half-life (t1/2) (min) ± SD; for Increase over Silodosin (%): increase of HLM half-life relative to silodosin. The method, then: Evaluation of Metabolic Stability in Human Liver Microsomes. Human liver microsomes (“HLM”; 20 mg/mL) were obtained from Xenotech, LLC (Lenexa, Kans.). β-nicotinamide adenine dinucleotide phosphate, reduced form (NADPH), magnesium chloride (MgCl2), and dimethyl sulfoxide (DMSO) were purchased from Sigma-Aldrich.
Stock solutions of Compounds 108, 110, 111 and silodosin (7.5 mM) were separately prepared in DMSO. The 7.5 mM stock solutions were diluted to 50 μM in acetonitrile (ACN). The 20 mg/mL human liver microsomes were diluted to 0.625 mg/mL in 0.1 M potassium phosphate buffer, pH 7.4, containing 3 mM MgCl2. The diluted microsomes (375 μL) were added to wells of a 96-well deep-well polypropylene plate in triplicate. Ten μL of the 50 μM test compound solution was added to the microsomes and the mixture was pre-warmed for 10 minutes. Reactions were initiated by addition of 125 μL, of pre-warmed NADPH solution (8 mM NADPH in 0.1M potassium phosphate buffer, pH 7.4, containing 3 mM MgCl2). The final reaction volume was 0.5 mL and contains 0.5 mg/mL human liver microsomes, 1 μM test compound, and 2 mM NADPH in 0.1 M potassium phosphate buffer, pH 7.4, and 3 mM MgCl2. The reaction mixtures were incubated at 37° C., and 50 μL aliquots were removed at 0, 5, 10, 20, and 30 minutes and added to shallow-well 96-well plates which contain 50 μL of ice-cold ACN with internal standard to stop the reactions. The plates were stored at 4° C. for 20 minutes after which 100 μL of water was added to the wells of the plate before centrifugation to pellet precipitated proteins. Supernatants were transferred to another 96-well plate and analyzed for amounts of parent remaining by LC-MS/MS using an Applied Bio-systems API 4000 mass spectrometer.
The in vitro t1/2s for test compounds were calculated from the slopes of the linear regression of % parent remaining (ln) vs incubation time relationship. in vitro t1/2=0.693/k, where k=−[slope of linear regression of % parent remaining(ln) vs incubation time]. The experiment was performed twice. Data analysis was performed using Microsoft Excel Software.
For orientation: Microsomes from liver hold many membrane-bound enzymes, among them those of drug oxidation.

`[2H]C([2H])(O)C([2H])([2H])C([2H])([2H])N1CCc2cc(C[C@@H](C)NCCOc3ccccc3OCC(F)(F)F)cc(C(N)=O)c21` [Compound 111, (R)-1-(3-Hydroxy-(1,1,2,2,3,3-d6)-propyl)-5-(2-(2-(2-(2,2,2-trifluoroethoxy)-phenoxy)ethylamino)propyl)indoline-7-carboxamide]: the half-life at 1 μM worked out at 32 ± 0.1 min and the “Increase over Silodosin (%)” value was 0%. Turning to `C[C@H](Cc1cc2c(c(C(N)=O)c1)N(CCCO)CC2)NCCOc1ccccc1OCC(F)(F)F` [Silodosin, (R)-1-(3-hydroxypropyl)-5-(2-(2-(2-(2,2,2-trifluoroethoxy)phenoxy)ethylamino)-propyl)indoline-7-carboxamide, reference compound], the half-life at 1 μM amounted to 37 ± 0.1 min. On to `[2H]C([2H])(N[C@H](C)Cc1cc2c(c(C(N)=O)c1)N(CCCO)CC2)C([2H])([2H])Oc1ccccc1OC([2H])([2H])C(F)(F)F` [Compound 110, (R)-1-(3-hydroxypropyl)-5-(2-(2-(2-(2,2,2-d2-trifluoroethoxy)phenoxy)-d4-ethylamino)propyl)indoline-7-carboxamide], for which the half-life at 1 μM was 43 ± 10 min and the “Increase over Silodosin (%)” value is recorded as 17%. For `[2H]C([2H])(O)C([2H])([2H])C([2H])([2H])N1CCc2cc(C[C@@H](C)NC([2H])([2H])C([2H])([2H])Oc3ccccc3OC([2H])([2H])C(F)(F)F)cc(C(N)=O)c21` [Compound 108, (R)-1-(3-Hydroxy-(1,1,2,2,3,3-d6)-propyl)-5-(2-(2-(2-(2,2,2-trifluoro-1,1-d2-ethoxy)phenoxy)-(1,1,2,2-d4)-ethylamino)propyl)indoline-7-carboxamide], the half-life at 1 μM was 44 ± 1.2 min and the “Increase over Silodosin (%)” value is on record as 21%.

Source of the values: patent US20100076010A1, “ALPHA 1A-ADRENOCEPTOR ANTAGONISTS” (CONCERT Pharmaceuticals, Inc., priority 2007, published 2010).
